Results taken from patent US8101766B2, “Crystalline form of a biphenyl compound” (Theravance, Inc., priority 2004, dated 2012).

Experiments:
[1] = biological target: T1, hM3 receptor (Homo sapiens, UniProt P20309); test: Blockade of agonist-mediated calcium release via FLIPR assay (hM3); format: cell-based; conditions: CHO cells stably expressing hM3
T1 construct: expressed in transfected cells
Source text: B. Blockade of Agonist-Mediated Calcium Release Via FLIPR Assays
Muscarinic receptor subtypes (M1, M3 and M5 receptors), which couple to Gq proteins, activate the phospholipase C (PLC) pathway upon agonist binding to the receptor. As a result, activated PLC hydrolyzes phosphatyl inositol diphosphate (PIP2) to diacylglycerol (DAG) and phosphatidyl-1,4,5-triphosphate (IP3), which in turn generates calcium release from intracellular stores, i.e., endoplasmic and sarcoplasmic reticulum. […] This fluorescence event is measured in real time by the FLIPR, which detects the change in fluorescence from a monolayer of cells cloned with human M1 and M3, and chimpanzee M5 receptors. Antagonist potency can be determined by the ability of antagonists to inhibit agonist-mediated increases in intracellular calcium. […]
To determine antagonist potency, the dose-dependent stimulation of intracellular Ca^2+ release for oxotremorine was first determined so that antagonist potency can later be measured against oxotremorine stimulation at an EC90 concentration. […]
The parameters used for the FLIPR were: exposure length of 0.4 seconds, laser strength of 0.5 watts, excitation wavelength of 488 nm, and emission wavelength of 550 nm. Baseline was determined by measuring the change in fluorescence for 10 seconds prior to addition of agonist. […]

[2] = test system: MCh-induced bronchoconstriction; test: Bronchoprotection in guinea pig model of acetylcholine-induced bronchoconstriction; format: in vivo; conditions: inhalation
Experimental: Duration of Bronchoprotection in Guinea Pig Models of Acetylcholine-Induced or Histamine-Induced Bronchoconstriction
To isolate muscarinic antagonist activity in the acetylcholine-induced bronchoconstriction model, the animals were administered propanolol, a compound that blocks β receptor activity, prior to the administration of acetylcholine. Duration of bronchoprotection in the histamine-induced bronchoconstriction model reflects β2 adrenergic receptor agonist activity.
Groups of 6 male guinea pigs (Duncan-Hartley (HsdPoc:DH) Harlan, Madison, Wis.) weighing between 250 and 350 g were individually identified by cage cards. Throughout the study, animals were allowed access to food and water ad libitum.
Test compounds were administered via inhalation over 10 minutes in a whole-body exposure dosing chamber (R&S Molds, San Carlos, Calif.). […] This value was measured gravimetrically by comparing pre- and post-nebulization weights of the filled nebulizer.
The bronchoprotective effects of test compounds administered via inhalation were evaluated using whole body plethysmography at 1.5, 24, 48 and 72 hours post-dose. […]
Once it was determined that baseline values were within the range of 0.3-0.9 mL/cm H2O for compliance and within the range of 0.1-0.199 cm H2O/mL per second for resistance, the pulmonary evaluation was initiated. […]

T1 sequence (P20309 whole entry): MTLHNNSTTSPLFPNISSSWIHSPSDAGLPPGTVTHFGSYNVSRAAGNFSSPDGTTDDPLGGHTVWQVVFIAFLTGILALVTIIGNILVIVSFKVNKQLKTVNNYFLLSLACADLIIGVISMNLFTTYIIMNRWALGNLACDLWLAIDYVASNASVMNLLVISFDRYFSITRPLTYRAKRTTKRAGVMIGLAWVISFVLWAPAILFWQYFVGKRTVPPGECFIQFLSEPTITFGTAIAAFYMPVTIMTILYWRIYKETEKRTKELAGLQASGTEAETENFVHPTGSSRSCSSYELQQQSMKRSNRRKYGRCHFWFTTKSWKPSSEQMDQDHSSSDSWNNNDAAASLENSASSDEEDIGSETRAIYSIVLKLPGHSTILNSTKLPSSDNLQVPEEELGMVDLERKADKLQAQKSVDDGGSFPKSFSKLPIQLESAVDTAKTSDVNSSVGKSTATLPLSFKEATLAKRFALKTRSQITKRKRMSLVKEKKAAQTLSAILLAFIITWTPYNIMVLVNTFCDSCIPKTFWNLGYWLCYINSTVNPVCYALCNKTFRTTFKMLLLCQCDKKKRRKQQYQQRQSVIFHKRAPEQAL

**Q.** Which Ki [1] does the source give for `COc1cc(NC(=O)CCN2CCC(OC(=O)Nc3ccccc3-c3ccccc3)CC2)c(Cl)cc1CNC[C@H](O)c1ccc(O)c2[nH]c(=O)ccc12` [compound of formula I, biphenyl-2-ylcarbamic acid 1-[2-(2-chloro-4-{[(R)-2-hydroxy-2-(8-hydroxy-2-oxo-1,2-dihydroquinolin-5-yl)ethylamino]methyl}-5-methoxyphenylcarbamoyl)ethyl]piperidin-4-yl ester] here?
**A.** Its Ki is under 10 nM.

**Q.** And the “bronchoprotective effect against MCh-induced bronchoconstriction” value [2]?
**A.** Its value is “dose-dependent bronchoprotective effect”.
